Test results published in publication PMC12523804, “Evaluation of molecular mechanisms of (Z)-3-(pentadec-10′-enyl)-catechol (litreol) and synthetic derivatives as inhibitors of human leukotriene biosynthesis” (Redox Biology, 2025).

Legend:
NF-κB = assay: Western blot of NF-κB; format: cell-based; details: LPS stimulation
Procedure: Human polymorphonuclear leukocytes (PMNLs; 50 × 10^6), isolated from whole blood, were resuspended in 1 mL of cold PGC buffer. Briefly, neutrophils were pre-incubated for 15 min at 37 °C with test compounds (1 μM). […] The samples were subsequent centrifuged (1200g, 10 min) and the pellets were resuspended in 100 μL od SDS-PAGE loading buffer (2x) (Tris 1 M pH 8, EDTA 0.2 M, 10 % SDS, 10 % mercaptoethanol). Correct protein loading on the gels and transfer of proteins to the nitrocellulose membrane were confirmed by Ponceau staining. Membranes with transferred proteins were incubated overnight with primary antibodies in 1x Tris Buffered Saline (TBS) with 1 % Casein (Biorad- #1610782). Membranes were then washed and incubated with horseradish peroxidase-conjugated secondary antibodies for 1 h at room temperature. Blots were developed using enhanced chemiluminescence detection reagents ECL (Immobilion ECL Ultra Western HRP Substrate - Cat# WBULS0500 Millipore) and acquired using ChemiDoc Imaging System (BioRad). Antibody recognizing phosphorylated p38-MAPkinase, pERK, ERK, NfKB were from Cell Signalling Technology (Boston, MA) and used at 1:1000 dilution. Secondary antibodies were purchased from Biorad (170–6515; 170–6516) and used at 1:2000 diluition.

ROS formation in PMNL = assay: ROS formation in neutrophils (DCF-DA); format: cell-based, human; details: 1 and 10 μM, 0.1 μM PMA
Procedure: Neutrophils (10^7 cells/mL in PG buffer) were pre-incubated for 15 min at 37 °C with litreol compounds, diphenyleneiodonium chloride (DPI, used as a positive control for ROS inhibition), or 0.1 % DMSO as vehicle control. Then, 2′,7′-dichlorofluorescence-diacetate (DCF-DA; 1 μg/mL) and CaCl2 (1 mM) were added 2 min prior to addition of 0.1 μM phorbol myristate acetate (PMA, AppliChem, Darmstadt, Germany). The fluorescence emission at 530 nm was measured after excitation at 485 nm in a thermally controlled (37 °C) NOVOstar microplate reader (BMG Labtechnologies GmbH, Offenburg, Germany).

Compound	NF-κB expression (Western blot) (NF-κB)	ROS formation in PMA-stimulated PMNL (ROS formation in PMNL)
CCCC/C=C\CCCCCCCCCc1cccc(O)c1O [CI, (Z)-3-(pentadec-10′-enyl)-catechol]	most pronounced effect	not affected
CCCCCCCCCCCCCCCc1cccc(O)c1O [CS, 3-n-pentadecylcatechol]		not affected
